Experiments:
Assay in all cases: biochemical
Parameters in all cases: KINOMEscan competition binding, DNA-tagged kinase against immobilised ligand, qPCR read-out
Conditions in all cases: read-out: Percent Control
[1] = molecular target: STK39 (Homo sapiens, UniProt Q9UEW8)
[2] = molecular target: PTK2 (Homo sapiens, UniProt Q05397)
[3] = molecular target: NEK3 (Homo sapiens, UniProt P51956)
[4] = molecular target: CDK19 (Homo sapiens, UniProt Q9BWU1)
[5] = molecular target: TYRO3 (Homo sapiens, UniProt Q06418)
[6] = molecular target: TSSK1B (Homo sapiens, UniProt Q9BXA7)
[7] = molecular target: EPHB3 (Homo sapiens, UniProt P54753)
[8] = molecular target: NEK7 (Homo sapiens, UniProt Q8TDX7)
[9] = molecular target: WNK4 (Homo sapiens, UniProt Q96J92)
[10] = molecular target: SGK3 (Homo sapiens, UniProt Q96BR1)
[11] = molecular target: RPS6KB1 (Homo sapiens, UniProt P23443)
[12] = molecular target: FYN (Homo sapiens, UniProt P06241)
[13] = molecular target: ROCK2 (Homo sapiens, UniProt O75116)
[14] = molecular target: STK16 (Homo sapiens, UniProt O75716)
[15] = molecular target: MAP3K14 (Homo sapiens, UniProt Q99558)
[16] = molecular target: CDKL3 (Homo sapiens, UniProt Q8IVW4)
[17] = molecular target: MAK (Homo sapiens, UniProt P20794)
[18] = molecular target: PDGFRA (Homo sapiens, UniProt P16234)
[19] = molecular target: CSNK1G3 (Homo sapiens, UniProt Q9Y6M4)
[20] = molecular target: TEC (Homo sapiens, UniProt P42680)
Chain of TEC (P42680 whole entry): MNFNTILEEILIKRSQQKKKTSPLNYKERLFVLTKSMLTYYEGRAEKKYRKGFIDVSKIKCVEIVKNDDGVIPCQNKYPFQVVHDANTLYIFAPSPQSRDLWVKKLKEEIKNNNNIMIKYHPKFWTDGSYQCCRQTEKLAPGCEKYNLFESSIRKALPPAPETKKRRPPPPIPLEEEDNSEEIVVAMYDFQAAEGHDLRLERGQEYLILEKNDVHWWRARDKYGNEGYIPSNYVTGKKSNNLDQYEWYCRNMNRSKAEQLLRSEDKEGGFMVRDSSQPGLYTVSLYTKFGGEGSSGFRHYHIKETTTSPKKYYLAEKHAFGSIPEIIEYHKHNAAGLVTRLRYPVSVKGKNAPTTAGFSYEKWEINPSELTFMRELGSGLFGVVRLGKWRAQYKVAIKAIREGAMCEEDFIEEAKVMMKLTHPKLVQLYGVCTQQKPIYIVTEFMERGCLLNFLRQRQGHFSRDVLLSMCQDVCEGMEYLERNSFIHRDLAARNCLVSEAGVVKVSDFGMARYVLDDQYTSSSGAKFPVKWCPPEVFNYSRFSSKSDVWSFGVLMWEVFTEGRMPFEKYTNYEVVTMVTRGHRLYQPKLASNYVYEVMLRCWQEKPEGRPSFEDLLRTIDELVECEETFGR

Chain of WNK4 (Q96J92 whole entry): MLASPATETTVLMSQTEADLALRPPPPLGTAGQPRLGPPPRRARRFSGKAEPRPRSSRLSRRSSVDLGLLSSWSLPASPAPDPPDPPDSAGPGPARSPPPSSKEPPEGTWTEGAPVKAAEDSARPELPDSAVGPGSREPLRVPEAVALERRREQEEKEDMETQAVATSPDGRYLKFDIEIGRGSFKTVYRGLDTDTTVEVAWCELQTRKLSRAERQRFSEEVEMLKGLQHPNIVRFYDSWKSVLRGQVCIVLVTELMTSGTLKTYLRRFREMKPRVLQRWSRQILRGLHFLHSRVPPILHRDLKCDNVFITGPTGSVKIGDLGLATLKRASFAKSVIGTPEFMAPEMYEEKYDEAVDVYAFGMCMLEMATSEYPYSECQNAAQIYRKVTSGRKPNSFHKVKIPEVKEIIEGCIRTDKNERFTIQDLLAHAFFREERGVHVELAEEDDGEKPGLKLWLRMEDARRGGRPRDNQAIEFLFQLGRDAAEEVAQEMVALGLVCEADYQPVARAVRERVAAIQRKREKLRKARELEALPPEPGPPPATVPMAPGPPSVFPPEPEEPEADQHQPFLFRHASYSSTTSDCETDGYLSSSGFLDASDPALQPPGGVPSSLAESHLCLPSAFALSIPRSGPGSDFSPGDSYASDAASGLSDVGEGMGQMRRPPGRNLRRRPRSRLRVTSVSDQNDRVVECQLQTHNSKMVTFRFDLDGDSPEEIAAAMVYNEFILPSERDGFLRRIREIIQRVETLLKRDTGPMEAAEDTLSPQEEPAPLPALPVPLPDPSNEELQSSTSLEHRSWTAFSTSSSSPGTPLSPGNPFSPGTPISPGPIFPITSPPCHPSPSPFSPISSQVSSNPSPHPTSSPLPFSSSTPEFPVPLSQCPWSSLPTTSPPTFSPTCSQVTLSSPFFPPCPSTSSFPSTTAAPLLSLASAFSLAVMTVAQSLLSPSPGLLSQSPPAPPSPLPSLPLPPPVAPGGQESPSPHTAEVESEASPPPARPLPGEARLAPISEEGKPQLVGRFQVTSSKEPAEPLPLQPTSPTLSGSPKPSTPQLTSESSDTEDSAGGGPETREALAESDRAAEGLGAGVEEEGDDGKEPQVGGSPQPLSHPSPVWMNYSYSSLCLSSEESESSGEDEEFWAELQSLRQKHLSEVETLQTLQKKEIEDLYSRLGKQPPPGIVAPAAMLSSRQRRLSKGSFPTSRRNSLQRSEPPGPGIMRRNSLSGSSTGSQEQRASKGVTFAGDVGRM
Chain of CDK19 (Q9BWU1 whole entry): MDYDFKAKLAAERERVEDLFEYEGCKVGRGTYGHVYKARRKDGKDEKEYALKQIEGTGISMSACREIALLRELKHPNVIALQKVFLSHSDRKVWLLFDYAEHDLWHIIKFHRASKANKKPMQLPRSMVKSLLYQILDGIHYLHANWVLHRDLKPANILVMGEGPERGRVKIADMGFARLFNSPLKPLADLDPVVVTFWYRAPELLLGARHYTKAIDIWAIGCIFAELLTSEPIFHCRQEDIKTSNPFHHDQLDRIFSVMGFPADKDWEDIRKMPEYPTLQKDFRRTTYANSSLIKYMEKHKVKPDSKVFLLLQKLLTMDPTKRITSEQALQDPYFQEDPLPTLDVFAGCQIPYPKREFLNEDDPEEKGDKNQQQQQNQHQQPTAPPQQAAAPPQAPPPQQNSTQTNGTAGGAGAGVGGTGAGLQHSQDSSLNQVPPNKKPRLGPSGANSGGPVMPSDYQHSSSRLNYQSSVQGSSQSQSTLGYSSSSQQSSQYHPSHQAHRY
Chain of FYN (P06241 whole entry): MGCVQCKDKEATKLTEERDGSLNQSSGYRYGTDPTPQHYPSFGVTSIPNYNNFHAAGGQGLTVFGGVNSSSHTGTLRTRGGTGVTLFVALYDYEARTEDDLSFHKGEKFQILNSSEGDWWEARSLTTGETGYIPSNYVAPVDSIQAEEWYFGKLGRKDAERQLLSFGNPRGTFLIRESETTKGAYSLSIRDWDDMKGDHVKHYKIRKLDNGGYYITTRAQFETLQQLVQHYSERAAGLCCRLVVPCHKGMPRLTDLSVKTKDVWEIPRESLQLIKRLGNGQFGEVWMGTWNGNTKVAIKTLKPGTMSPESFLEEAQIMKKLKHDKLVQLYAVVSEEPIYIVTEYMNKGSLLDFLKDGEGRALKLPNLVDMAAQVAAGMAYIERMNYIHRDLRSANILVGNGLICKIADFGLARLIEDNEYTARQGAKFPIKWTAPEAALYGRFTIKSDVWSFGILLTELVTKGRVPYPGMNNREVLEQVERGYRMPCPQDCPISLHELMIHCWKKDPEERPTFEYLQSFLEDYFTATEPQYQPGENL
Chain of PDGFRA (P16234 whole entry): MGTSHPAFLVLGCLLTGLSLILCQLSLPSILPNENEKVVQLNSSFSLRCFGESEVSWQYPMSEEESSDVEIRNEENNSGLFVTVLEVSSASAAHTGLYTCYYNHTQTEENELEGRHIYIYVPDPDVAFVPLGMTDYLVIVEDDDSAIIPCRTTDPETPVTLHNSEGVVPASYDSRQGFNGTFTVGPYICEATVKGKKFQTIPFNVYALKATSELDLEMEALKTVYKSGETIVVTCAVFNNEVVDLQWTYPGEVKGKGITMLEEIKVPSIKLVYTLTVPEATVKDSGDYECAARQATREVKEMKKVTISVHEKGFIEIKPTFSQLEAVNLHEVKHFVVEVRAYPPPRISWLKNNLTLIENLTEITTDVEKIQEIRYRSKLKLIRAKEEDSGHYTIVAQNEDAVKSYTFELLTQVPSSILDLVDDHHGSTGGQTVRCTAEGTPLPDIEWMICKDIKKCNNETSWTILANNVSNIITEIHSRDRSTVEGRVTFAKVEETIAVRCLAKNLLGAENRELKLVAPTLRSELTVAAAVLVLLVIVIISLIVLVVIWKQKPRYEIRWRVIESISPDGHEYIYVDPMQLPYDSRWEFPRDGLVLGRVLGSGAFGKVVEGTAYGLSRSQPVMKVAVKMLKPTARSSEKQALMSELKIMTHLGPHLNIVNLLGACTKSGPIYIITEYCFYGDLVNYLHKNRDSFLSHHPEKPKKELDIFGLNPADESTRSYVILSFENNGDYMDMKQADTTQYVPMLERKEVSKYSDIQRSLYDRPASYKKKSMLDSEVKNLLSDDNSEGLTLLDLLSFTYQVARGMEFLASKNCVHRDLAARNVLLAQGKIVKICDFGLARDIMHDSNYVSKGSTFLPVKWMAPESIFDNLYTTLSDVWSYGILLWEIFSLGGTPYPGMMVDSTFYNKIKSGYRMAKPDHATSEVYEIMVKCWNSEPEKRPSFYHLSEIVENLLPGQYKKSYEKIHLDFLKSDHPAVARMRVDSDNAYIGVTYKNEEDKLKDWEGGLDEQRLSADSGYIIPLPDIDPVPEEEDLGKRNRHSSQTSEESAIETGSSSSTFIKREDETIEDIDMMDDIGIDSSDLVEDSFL
Chain of TSSK1B (Q9BXA7 whole entry): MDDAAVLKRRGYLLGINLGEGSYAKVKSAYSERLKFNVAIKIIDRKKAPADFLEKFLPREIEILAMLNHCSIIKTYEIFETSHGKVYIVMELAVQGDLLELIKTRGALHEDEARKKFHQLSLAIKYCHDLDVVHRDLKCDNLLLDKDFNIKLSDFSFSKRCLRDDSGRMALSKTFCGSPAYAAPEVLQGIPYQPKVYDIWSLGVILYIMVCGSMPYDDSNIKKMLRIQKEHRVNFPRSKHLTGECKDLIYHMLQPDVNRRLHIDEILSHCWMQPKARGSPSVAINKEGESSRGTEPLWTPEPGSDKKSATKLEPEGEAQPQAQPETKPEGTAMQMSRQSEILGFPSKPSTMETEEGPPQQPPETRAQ
Chain of STK16 (O75716 whole entry): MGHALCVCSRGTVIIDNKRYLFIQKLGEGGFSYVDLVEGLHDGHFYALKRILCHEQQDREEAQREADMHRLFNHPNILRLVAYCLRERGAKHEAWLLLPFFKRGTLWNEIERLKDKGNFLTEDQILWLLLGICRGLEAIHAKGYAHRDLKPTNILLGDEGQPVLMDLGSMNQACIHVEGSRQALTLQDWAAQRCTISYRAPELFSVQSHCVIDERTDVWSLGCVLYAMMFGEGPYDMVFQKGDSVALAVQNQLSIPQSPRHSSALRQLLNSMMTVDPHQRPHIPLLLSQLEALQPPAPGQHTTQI
Chain of NEK7 (Q8TDX7 whole entry): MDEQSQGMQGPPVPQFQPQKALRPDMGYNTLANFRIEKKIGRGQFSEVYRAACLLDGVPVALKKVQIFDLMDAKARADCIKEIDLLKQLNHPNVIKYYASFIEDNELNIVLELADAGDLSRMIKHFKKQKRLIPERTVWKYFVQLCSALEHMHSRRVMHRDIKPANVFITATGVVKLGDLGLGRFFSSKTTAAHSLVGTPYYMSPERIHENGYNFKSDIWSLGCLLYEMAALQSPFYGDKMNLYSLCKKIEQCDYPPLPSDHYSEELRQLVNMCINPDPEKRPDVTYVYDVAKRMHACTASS

Oc1ccc(C2=Cc3ccc(O)cc3OC2)cc1 [compound 1, idronoxil]
remaining binding at 10 µM [1]: 71%
remaining binding at 10 µM [2]: 100%
remaining binding at 10 µM [3]: 80%
remaining binding at 10 µM [4]: 99%
remaining binding at 10 µM [5]: 66%
remaining binding at 10 µM [6]: 87%
remaining binding at 10 µM [7]: 95%
remaining binding at 10 µM [8]: 99%
remaining binding at 10 µM [9]: 95%
remaining binding at 10 µM [10]: 49%
remaining binding at 10 µM [11]: 84%
remaining binding at 10 µM [12]: 89%
remaining binding at 10 µM [13]: 82%
remaining binding at 10 µM [14]: 100%
remaining binding at 10 µM [15]: 60%
remaining binding at 10 µM [16]: 59%
remaining binding at 10 µM [17]: 100%
remaining binding at 10 µM [18]: 29%
remaining binding at 10 µM [19]: 100%
remaining binding at 10 µM [20]: 93%
